According to patent US11274100B2, “EP300/CREBBP inhibitor” (Daiichi Sankyo Company, Limited, priority 2017, dated 2022):

How the values were obtained:
TE-8 cells [1] = assay: Cell growth inhibitory activity, TE-8 cells (Test Example 3); format: cell-based; details: Homo sapiens, 72 h, cultured for 3 days, CellTiter-Glo
In short: (§1)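 LK2 and TE-8 […] cells in RPMI 1640 with 10% FBS exposed to 10-point 4-fold dilutions (10 mM to 38 nM, stock series) for 3 days. ATP luminescence (CellTiter-Glo 2.0) at day 0 and day 3 gave survival as (T3−C0)/(C3−C0)×100; GI50 from semilog plot.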

H3K27Ac = assay: Intracellular H3K27Ac inhibitory activity in LK2 cells (Test Example 2); format: cell-based; details: Homo sapiens, LK-2, cultured with compound for 3 hours, read-out: Test Example 2 H3K27Ac Inhibition (LK2) IC50
In short: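 Human squamous lung cancer LK2 cells (40000/well) cultured overnight at 37 °C, 5% CO2 before treatment. After paraformaldehyde fixation, peroxide quench and blocking, H3K27 acetylation detected with anti-acetyl-H3K27 rabbit mAb (4 °C overnight) and HRP secondary; chemiluminescent read-out.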

EP300 = EP300 (Homo sapiens, UniProt Q09472); assay: Histone acetyltransferase inhibitory activity against EP300 (Test Example 1); format: biochemical; details: 50 ng/mL EP300, 2 μM Acetyl-CoA, 100 nM Histone H4(1-25)-GSGSK (Biotin), 28° C. for 1 hour
Sequence of EP300 (Q09472 whole entry): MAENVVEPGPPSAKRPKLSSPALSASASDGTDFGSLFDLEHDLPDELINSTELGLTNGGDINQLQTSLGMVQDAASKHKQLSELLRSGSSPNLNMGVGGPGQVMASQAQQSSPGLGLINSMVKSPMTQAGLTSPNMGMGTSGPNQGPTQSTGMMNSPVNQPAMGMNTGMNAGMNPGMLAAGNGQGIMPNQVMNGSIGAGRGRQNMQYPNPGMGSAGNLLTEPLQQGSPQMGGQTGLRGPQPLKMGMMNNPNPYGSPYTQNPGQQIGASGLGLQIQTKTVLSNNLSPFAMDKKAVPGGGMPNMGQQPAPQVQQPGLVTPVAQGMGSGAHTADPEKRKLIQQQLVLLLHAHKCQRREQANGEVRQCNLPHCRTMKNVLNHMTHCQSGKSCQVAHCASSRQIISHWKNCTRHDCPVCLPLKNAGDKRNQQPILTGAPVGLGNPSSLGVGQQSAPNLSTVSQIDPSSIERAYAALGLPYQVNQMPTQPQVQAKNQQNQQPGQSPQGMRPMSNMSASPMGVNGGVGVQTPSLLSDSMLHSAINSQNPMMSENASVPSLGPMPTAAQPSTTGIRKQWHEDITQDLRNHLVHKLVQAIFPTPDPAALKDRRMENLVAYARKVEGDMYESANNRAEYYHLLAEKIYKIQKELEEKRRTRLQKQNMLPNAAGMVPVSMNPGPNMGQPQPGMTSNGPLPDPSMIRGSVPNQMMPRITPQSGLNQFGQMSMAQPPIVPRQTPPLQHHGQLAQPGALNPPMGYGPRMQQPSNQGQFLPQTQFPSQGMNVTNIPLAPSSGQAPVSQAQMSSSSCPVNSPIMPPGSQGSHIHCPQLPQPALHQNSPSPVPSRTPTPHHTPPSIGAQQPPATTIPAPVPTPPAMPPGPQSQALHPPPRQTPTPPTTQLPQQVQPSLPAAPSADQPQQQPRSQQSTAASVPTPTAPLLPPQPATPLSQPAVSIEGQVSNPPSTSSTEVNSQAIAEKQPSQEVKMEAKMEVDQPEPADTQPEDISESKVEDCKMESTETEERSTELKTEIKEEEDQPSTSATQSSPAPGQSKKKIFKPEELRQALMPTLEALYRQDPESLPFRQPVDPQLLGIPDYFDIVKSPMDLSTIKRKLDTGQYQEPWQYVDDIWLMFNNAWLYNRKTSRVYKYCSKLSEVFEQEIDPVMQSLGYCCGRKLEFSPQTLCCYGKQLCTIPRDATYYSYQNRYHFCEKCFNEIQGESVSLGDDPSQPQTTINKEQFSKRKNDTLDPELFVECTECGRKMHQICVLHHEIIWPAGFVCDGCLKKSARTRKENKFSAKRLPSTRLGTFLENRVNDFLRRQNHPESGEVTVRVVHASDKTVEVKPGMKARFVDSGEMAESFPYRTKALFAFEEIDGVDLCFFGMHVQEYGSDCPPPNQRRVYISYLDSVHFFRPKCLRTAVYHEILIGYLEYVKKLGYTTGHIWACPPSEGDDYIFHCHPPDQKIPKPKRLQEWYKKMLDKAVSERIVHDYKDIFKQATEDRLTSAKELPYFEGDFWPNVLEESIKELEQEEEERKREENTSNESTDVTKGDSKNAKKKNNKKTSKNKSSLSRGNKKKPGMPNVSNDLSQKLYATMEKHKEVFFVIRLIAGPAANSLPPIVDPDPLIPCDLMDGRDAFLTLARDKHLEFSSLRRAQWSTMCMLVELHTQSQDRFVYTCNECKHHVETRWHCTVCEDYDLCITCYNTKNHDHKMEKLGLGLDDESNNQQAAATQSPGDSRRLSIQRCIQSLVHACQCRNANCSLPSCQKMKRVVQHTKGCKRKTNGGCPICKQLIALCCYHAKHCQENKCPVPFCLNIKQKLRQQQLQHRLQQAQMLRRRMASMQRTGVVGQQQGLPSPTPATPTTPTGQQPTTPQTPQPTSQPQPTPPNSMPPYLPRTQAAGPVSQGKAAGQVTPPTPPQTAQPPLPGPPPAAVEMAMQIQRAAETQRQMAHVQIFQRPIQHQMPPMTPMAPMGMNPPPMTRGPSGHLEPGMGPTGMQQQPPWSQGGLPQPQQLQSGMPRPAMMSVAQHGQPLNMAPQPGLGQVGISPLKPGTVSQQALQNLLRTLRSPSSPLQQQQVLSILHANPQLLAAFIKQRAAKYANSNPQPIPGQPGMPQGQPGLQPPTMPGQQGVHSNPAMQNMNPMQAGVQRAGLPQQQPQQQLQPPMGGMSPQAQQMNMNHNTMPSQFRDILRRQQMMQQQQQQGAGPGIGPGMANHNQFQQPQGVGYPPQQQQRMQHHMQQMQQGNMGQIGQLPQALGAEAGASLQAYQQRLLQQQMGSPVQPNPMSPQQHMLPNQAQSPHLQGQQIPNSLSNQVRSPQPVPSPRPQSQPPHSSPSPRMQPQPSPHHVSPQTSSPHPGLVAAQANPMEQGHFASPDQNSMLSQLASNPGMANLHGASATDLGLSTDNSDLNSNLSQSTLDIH
In short: (§2)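 Enzyme (50 ng/mL EP300 or 125 ng/mL CREBBP) incubated 1 h at 28° C with 2 μM acetyl-CoA, 100 nM biotinylated histone H4(1-25) peptide and 10 to 0.0006 μM compound in pH 8.0 Tris buffer with 330 nM trichostatin A, 1% DMSO. Reaction stopped with Lys-CoA; acetylation read by TR-FRET (Eu-anti pan-Ac/Sta-ULight) after overnight room-temperature incubation.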

TE-8 cells [2] = assay: Antitumor activity in TE-8 cell subcutaneous transplant model (Test Example 5); format: in vivo, female BALB/c-nu/nu mice; details: TE-8 subcutaneous transplant model, test end day
Text: [Test Example 5] Evaluation of Antitumor Activity in TE-8 Cell Subcutaneous Transplant Model
TE-8 cells were transplanted at a rate of 1×10^7 cells/head subcutaneously into a right abdominal site of each of female BALB/c-nu/nu mice, and 9 days after (Example 73) or 10 days after (Examples 35 and 84), the mice were grouped into groups each consisting of 5 mice based on an estimated tumor volume (longer diameter×shorter diameter×shorter diameter/2) and the weight. The TE-8 cells were purchased from Riken Cell Bank. The female BALB/c-nu/nu mice were purchased from Charles River Laboratories Japan, Inc.
(§3) From the day of grouping, the compound of Example 73 at a dose set to 2 mg/kg/day was orally administered in accordance with a schedule of twice a day continuously for 9 days (BID x 9). The estimated tumor volume of each individual was measured from the day of grouping until 18 days after the transplantation (test end day).
as §3, with “Besides, from” for “From”, “[…]” for “73”, “11” for “9”, “11).” for “9).”, “21” for “18”
(§4) The antitumor activity in LK2 cell subcutaneous transplant model of Test Example 4, the antitumor activity in TE-8 cell subcutaneous transplant model of Test Example 5, the antitumor activity in KARPASS-422 cell subcutaneous transplant model of Test Example 6, the antitumor activity in NMC10-15 cell subcutaneous transplant model of Test Example 7, and the antitumor activity in VCaP cell subcutaneous transplant model of Test Example 8 were respectively calculated on the end dates of the tests in accordance with the following equation: Tumor Growth Inhibition Rate %=(1−TVCt/TVCc)×100 TVC=(individual tumor volume on test end day)−(individual tumor volume on grouping day)
TVCt: average of TVC values of administration group
TVCc: average of TVC values of non-administration group

CREBBP = CREBBP (Homo sapiens, UniProt Q92793); assay: Histone acetyltransferase inhibitory activity against CREBBP (Test Example 1); format: biochemical; details: 125 ng/mL CREBBP, 2 μM Acetyl-CoA, 100 nM Histone H4(1-25)-GSGSK (Biotin), 28° C. for 1 hour
Sequence of CREBBP (Q92793 whole entry): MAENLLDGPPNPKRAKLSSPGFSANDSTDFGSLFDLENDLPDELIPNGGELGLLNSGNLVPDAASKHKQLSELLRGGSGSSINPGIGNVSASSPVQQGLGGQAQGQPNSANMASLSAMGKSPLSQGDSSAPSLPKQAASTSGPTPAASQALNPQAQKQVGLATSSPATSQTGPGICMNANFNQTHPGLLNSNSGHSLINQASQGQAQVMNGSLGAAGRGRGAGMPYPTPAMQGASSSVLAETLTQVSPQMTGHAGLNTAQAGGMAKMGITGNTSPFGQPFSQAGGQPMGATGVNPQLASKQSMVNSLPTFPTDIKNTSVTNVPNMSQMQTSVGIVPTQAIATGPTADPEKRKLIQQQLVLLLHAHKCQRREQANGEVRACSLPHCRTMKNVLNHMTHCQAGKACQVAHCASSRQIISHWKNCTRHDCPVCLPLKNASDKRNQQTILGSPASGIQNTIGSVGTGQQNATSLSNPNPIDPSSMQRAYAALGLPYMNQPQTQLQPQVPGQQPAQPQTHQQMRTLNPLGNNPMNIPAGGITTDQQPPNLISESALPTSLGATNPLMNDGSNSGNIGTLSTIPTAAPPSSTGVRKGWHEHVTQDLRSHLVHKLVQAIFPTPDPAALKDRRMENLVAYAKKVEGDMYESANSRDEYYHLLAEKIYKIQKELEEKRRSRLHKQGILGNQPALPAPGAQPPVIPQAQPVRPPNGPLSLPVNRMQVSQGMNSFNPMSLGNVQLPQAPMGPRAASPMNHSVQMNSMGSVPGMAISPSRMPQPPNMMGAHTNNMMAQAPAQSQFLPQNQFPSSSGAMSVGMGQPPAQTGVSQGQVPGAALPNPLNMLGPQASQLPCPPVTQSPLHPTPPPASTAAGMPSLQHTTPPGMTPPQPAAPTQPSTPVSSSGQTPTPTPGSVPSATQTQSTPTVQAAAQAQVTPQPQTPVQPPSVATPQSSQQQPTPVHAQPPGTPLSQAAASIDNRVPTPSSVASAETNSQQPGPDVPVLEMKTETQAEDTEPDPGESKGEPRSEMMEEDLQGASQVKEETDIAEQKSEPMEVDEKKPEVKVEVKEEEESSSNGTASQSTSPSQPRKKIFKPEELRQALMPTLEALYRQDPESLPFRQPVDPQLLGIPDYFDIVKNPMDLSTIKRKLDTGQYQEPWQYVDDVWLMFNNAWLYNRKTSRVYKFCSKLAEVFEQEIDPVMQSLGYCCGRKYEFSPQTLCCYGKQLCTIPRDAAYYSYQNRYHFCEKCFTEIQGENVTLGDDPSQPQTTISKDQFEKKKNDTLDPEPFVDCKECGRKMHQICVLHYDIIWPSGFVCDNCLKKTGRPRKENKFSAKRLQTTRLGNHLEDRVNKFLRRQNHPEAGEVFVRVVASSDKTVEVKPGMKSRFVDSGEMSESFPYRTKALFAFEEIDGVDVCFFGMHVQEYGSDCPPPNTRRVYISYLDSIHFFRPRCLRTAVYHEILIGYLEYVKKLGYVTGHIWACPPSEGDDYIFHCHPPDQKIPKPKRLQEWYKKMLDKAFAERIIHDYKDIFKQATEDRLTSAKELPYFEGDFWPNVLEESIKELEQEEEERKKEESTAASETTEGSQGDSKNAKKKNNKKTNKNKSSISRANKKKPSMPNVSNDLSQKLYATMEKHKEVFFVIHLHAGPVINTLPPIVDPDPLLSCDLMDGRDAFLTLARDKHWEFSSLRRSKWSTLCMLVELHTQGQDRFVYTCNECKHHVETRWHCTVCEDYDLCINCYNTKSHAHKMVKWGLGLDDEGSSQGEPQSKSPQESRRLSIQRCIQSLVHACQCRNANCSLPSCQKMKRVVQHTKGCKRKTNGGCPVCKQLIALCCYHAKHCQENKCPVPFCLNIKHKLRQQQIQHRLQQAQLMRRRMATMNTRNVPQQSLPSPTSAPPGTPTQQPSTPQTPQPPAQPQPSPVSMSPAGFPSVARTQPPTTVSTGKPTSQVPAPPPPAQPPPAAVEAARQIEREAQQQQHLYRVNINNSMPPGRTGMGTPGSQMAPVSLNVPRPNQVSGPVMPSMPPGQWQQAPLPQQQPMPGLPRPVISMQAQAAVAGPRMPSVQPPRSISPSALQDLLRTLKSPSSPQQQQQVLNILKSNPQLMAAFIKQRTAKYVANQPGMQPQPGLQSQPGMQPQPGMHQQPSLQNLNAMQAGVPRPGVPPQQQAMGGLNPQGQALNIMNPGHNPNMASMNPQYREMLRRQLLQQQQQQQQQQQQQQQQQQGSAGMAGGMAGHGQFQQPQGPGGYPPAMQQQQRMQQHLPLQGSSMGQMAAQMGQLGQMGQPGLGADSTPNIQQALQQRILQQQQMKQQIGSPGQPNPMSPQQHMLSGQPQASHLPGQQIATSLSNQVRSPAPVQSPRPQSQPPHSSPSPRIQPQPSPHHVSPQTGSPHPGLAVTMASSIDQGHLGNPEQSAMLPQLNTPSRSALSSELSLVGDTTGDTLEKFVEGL
In short: as §2

LK2 cells [3] = assay: Cell growth inhibitory activity, LK2 cells (Test Example 3); format: cell-based; details: Homo sapiens, LK-2, 72 h, cultured for 3 days, CellTiter-Glo
In short: as §1

VCaP cells = assay: Antitumor activity in VCaP cell subcutaneous transplant model (Test Example 8); format: in vivo, male NSG mice; details: oral
Text: [Test Example 8] Evaluation of Antitumor Activity in VCaP Cell Subcutaneous Transplant Model
VCaP cells derived from human prostate cancer were transplanted at a rate of 1×10^7 cells/head subcutaneously into a right abdominal site of each of male NSG mice, and 8 days after, the mice were grouped into groups each consisting of 5 mice based on an estimated tumor volume (longer diameter×shorter diameter×shorter diameter/2) and the weight. The VCaP cells were purchased from American Type Culture Collection. […] The estimated tumor volume of each individual was measured from the day of grouping until 24 days after the transplantation (test end day).
as §4, with “grouping day) […]” for “grouping day)”

NMC10-15 cells = assay: Antitumor activity in NMC10-15 cell subcutaneous transplant model (Test Example 7); format: in vivo, female BALB/c-nu/nu mice; details: NMC10-15 subcutaneous transplant model, oral, QD×9, 15 days after transplantation
Text: [Test Example 7] Evaluation of Antitumor Activity in NMC10-15 Cell Subcutaneous Transplant Model
(§5) NMC10-15 cells derived from human nut midline carcinoma were transplanted at a rate of 5×10^6 cells/head subcutaneously into a right abdominal site of each of female BALB/c-nu/nu mice, and 6 days after, the mice were grouped into groups each consisting of 5 mice based on an estimated tumor volume (longer diameter×shorter diameter×shorter diameter/2) and the weight. […] The estimated tumor volume of each individual was measured from the day of grouping until 15 days after the transplantation (test end day).
as §4, with “grouping day) […]” for “grouping day)”

KARPAS-422 cells = assay: Antitumor activity in KARPAS-422 cell subcutaneous transplant model (Test Example 6); format: in vivo, female SCID mice; details: KARPAS422 subcutaneous transplant model, dose 6 mg/kg/day, test end day
Text: [Test Example 6] Evaluation of Antitumor Activity in KARPAS-422 Cell Subcutaneous Transplant Model
KARPAS-422 cells of human diffuse large B-cell lymphoma were transplanted at a rate of 2×10^7 cells/head subcutaneously into a right abdominal site of each of female SCID mice, and 10 days after, the mice were grouped into groups each consisting of 5 mice based on an estimated tumor volume (longer diameter×shorter diameter×shorter diameter/2) and the weight. The KARPAS-422 cells were purchased from Deutsche Sammlung von Mikroorganismen und Zelkulturen GmbH. […] The estimated tumor volume of each individual was measured from the day of grouping until 28 days after the transplantation (test end day).
as §4, with “grouping day) […]” for “grouping day)”

LK2 cells [4] = assay: Antitumor activity in LK2 cell subcutaneous transplant model (Test Example 4); format: in vivo, female BALB/c-nu/nu mice; details: test end day
Text: [Test Example 4] Evaluation of Antitumor Activity in LK2 Cell Subcutaneous Transplant Model
as §5, with “LK2” for “NMC10-15”, “cells” for “cells derived from human nut midline carcinoma”, “2×10^6” for “5×10^6”, “7” for “6”, “weight. The LK2 cells were purchased from Human Science Research Resources Bank.” for “weight.”, “18” for “15”
as §4
TVCt: average of TVC values of administration group […]

Row | SMILES | GI50 (TE-8 cells [1]) | IC50 (H3K27Ac) | IC50 (EP300) | Tumor Growth Inhibition Rate (TE-8 cells [2]; dose 2 mg/kg/day) | IC50 (CREBBP) | GI50 (LK2 cells [3]) | Tumor Growth Inhibition Rate (VCaP cells; dose 10 mg/kg/day, QOD×8, 24 days after transplantation) | Tumor Growth Inhibition Rate (NMC10-15 cells; dose 0.3 mg/kg/day) | Tumor Growth Inhibition Rate (KARPAS-422 cells) | Tumor Growth Inhibition Rate (TE-8 cells [2]; dose 6 mg/kg/day) | Tumor Growth Inhibition Rate (LK2 cells [4]; dose 12.5 mg/kg/day) | Tumor Growth Inhibition Rate (LK2 cells [4]; dose 6.25 mg/kg/day) | Tumor Growth Inhibition Rate (VCaP cells; dose 6 mg/kg/day, QD×16, 24 days after transplantation) | Tumor Growth Inhibition Rate (NMC10-15 cells; dose 3 mg/kg/day)
1 | COc1ccc(C2(C(=O)N3C[C@H](F)C[C@@H]3C(=O)Nc3ccc4c(n3)CC(=O)N4)CCCCC2)cc1 [Example 66, (4R)-4-Fluoro-1-{[1-(4-methoxyphenyl)cyclohexyl]carbonyl}-N-(2-oxo-2,3-dihydro-1H-pyrrolo[3,2-b]pyridin-5-yl)-D-prolinamide] | 847 nM | 17 nM | 35 nM | 54% | 73 nM | 548 nM | – | – | – | – | – | – | – | –
2 | COc1ccc(C2(C(=O)N3C[C@H](F)C[C@@H]3C(=O)Nc3ccc4c(n3)CC(=O)N4)CCC(F)(F)CC2)cc1 [Example 73, (4R)-1-{[4,4-Difluoro-1-(4-methoxyphenyl)cyclohexyl]carbonyl}-4-fluoro-N-(2-oxo-2,3-dihydro-1H-pyrrolo[3,2-b]pyridin-5-yl)-D-prolinamide] | 620 nM | 70 nM | 52 nM | 65% | 148 nM | 610 nM | – | – | – | – | – | – | – | –
3 | O=C(Nc1ccc2[nH]ncc2n1)[C@H]1C[C@@H](F)CN1C(=O)C1(c2ccc(OC(F)F)cc2)CCC(F)(F)CC1 [Example 84, (4R)-1-({1-[4-(Difluoromethoxy)phenyl]-4,4-difluorocyclohexyl}carbonyl)-4-fluoro-N-1H-pyrazolo[4,3-b]pyridin-5-yl-D-prolinamide] | 152 nM | 22 nM | 26 nM | – | 39 nM | 97.2 nM | 77% | 66% | – | – | – | – | – | –
4 | COc1ccc(C2(C(=O)N3C[C@H](F)C[C@@H]3C(=O)Nc3ccc4[nH]ncc4n3)CCCCC2)cc1 [Example 35, (4R)-4-Fluoro-1-{[1-(4-methoxyphenyl)cyclohexyl]carbonyl}-N-1H-pyrazolo[4,3-b]pyridin-5-yl-D-prolinamide] | – | – | 24 nM | – | 10 nM | – | – | – | 66% | 51% | 44% | – | – | –
5 | COc1ccc(C2(C(=O)N3C[C@H](F)C[C@@H]3C(=O)Nc3ccc4[nH]ncc4n3)CCCCC2)cc1F [Example 37, (4R)-4-Fluoro-1-{[1-(3-fluoro-4-methoxyphenyl)cyclohexyl]carbonyl}-N-1H-pyrazolo[4,3-b]pyridin-5-yl-D-prolinamide] | 113 nM | 16 nM | 14 nM | – | 18 nM | 85.9 nM | – | – | – | – | – | 42% | – | –
6 | COc1ccc(C2(C(=O)N3C[C@H](F)C[C@@H]3C(=O)Nc3ccc4[nH]ncc4n3)CCC(F)(F)CC2)cc1 [Example 60, (4R)-1-{[4,4-Difluoro-1-(4-methoxyphenyl)cyclohexyl]carbonyl}-4-fluoro-N-1H-pyrazolo[4,3-b]pyridin-5-yl-D-prolinamide] | 311 nM | 54 nM | 28 nM | – | 67 nM | 211 nM | – | – | – | – | – | – | 89% | 99%
7 | CNCc1cc2nc(NC(=O)[C@H]3C[C@@H](F)CN3C(=O)C3(c4ccc(OC(F)F)cc4)CCC(F)(F)CC3)ccc2[nH]1 [Example 103, (4R)-1-({1-[4-(Difluoromethoxy)phenyl]-4,4-difluorocyclohexyl}carbonyl)-4-fluoro-N-{2-[(methylamino)methyl]-1H-pyrrolo[3,2-b]pyridin-5-yl}-D-prolinamide] | 304 nM | 34 nM | 41 nM | – | 77 nM | 184 nM | – | – | – | – | – | – | – | –
8 | COc1ccc(C2(C(=O)N3CS(=O)(=O)C[C@@H]3C(=O)Nc3ccc4[nH]c(C)cc4n3)CCC(F)(F)CC2)cc1 [Example 79, (4S)-3-{[4,4-Difluoro-1-(4-methoxyphenyl)cyclohexyl]carbonyl}-N-(2-methyl-1H-pyrrolo[3,2-b]pyridin-5-yl)-1,3-thiazolidine-4-carboxamide 1,1-dioxide] | 1670 nM | 268 nM | 181 nM | – | 193 nM | 1390 nM | – | – | – | – | – | – | – | –
9 | COc1c(F)cc(C2(C(=O)N3C[C@H](F)C[C@@H]3C(=O)Nc3ccc4[nH]ncc4n3)CCC(F)(F)CC2)cc1F [Example 62] | 880 nM | 142 nM | 76 nM | – | 87 nM | 489 nM | – | – | – | – | – | – | – | –
